Source: patent publication US8350007B2, “Crystal structure of human mitoNEET protein” (The Regents of the University of California, priority 2007, dated 2013)

How the values were obtained:
[1] = Blood glucose levels in diabetic ZDF rats treated with rosiglitazone; type: in vivo, rat; conditions: after three weeks of rosiglitazone 10 mg/kg by gavage
Experimental: Sixteen male ZDF rats were housed in filter cages, 2 or 3 animals per cage. Weight and blood glucose levels were measured every week. The blood glucose was measured at the fed state (07:30 am) and after 6 hours fast (1:[…]). The Animals were divided into two groups: a control group, and a rosiglitazone-treated group. Animals were treated daily for 3 weeks once a day, 5 times a week, with rosiglitazone, 10 mg/kg by gavage (0.7 ml) for the rosi-treated rats; or 0.7 ml saline for the control rats. After three weeks, liver, muscle and epididymal fat were collected and immediately frozen.
The average glucose blood level after fed of the control group was >240 mg/dl; in the rosiglitazone-treated rats some responded in a medium manner to the treatment; after three weeks of rosiglitazone treatment their glucose blood levels after fed was ˜120-140 mg/dl and some rats responded very well to rosiglitazone treatment and after three weeks their glucose blood levels after fed was ˜80 mg/dl.

[2] = molecular target: serum albumin (Homo sapiens, UniProt P02768); conditions: after patient ingestion, prior to cellular uptake; cited from earlier work
Sequence of serum albumin (P02768 25-609): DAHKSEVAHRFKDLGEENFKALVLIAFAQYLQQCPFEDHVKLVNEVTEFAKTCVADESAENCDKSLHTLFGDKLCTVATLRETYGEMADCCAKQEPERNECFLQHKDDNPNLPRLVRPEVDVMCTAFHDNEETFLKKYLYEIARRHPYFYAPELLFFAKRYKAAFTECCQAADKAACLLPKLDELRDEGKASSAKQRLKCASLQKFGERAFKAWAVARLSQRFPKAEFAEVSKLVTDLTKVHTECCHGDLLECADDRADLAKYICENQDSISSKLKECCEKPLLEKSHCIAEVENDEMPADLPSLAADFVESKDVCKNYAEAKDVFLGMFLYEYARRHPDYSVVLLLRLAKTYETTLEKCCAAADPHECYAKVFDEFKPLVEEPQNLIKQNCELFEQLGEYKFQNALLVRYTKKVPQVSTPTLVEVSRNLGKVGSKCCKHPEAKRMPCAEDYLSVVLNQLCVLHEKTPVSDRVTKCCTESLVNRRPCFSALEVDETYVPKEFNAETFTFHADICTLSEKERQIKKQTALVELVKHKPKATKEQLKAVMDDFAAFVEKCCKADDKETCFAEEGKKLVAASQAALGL

SMILES	glucose blood levels after fed ([1]; ZDF rats responding in a medium manner)	glucose blood levels after fed ([1]; ZDF rats responding very well)	binding to serum albumin [2]
CN(CCOc1ccc(CC2SC(=O)NC2=O)cc1)c1ccccn1 (stereo not drawn) [rosiglitazone]	120 to 140 mg/dL	~80 mg/dL	–
CCc1ccc(CCOc2ccc(CC3SC(=O)NC3=O)cc2)nc1 (stereo not drawn) [pioglitazone]	–	–	largely bound to serum albumin
